From PMC6934184, “Selective DNA-PKcs inhibition extends the therapeutic index of localized radiotherapy and chemotherapy” (The Journal of Clinical Investigation, 2019) come the findings set out here.

This experiment deals with T1, PRKD2 (PKD2) (Homo sapiens, UniProt Q9BZL6).
T1 construct: purchased Thermo Fisher Scientific (Life Technologies) SelectScreen
Put plainly: SelectScreen Z'LYTE. In kind it is biochemical. The essentials:
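Percent values come from Thermo SelectScreen profiling of NU5455, combining activity and binding assays. CSF1R was run in Z'LYTE format at Km app ATP, and CAMK1 in Adapta format with ATP listed at 10.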

T1 sequence (Q9BZL6 whole entry): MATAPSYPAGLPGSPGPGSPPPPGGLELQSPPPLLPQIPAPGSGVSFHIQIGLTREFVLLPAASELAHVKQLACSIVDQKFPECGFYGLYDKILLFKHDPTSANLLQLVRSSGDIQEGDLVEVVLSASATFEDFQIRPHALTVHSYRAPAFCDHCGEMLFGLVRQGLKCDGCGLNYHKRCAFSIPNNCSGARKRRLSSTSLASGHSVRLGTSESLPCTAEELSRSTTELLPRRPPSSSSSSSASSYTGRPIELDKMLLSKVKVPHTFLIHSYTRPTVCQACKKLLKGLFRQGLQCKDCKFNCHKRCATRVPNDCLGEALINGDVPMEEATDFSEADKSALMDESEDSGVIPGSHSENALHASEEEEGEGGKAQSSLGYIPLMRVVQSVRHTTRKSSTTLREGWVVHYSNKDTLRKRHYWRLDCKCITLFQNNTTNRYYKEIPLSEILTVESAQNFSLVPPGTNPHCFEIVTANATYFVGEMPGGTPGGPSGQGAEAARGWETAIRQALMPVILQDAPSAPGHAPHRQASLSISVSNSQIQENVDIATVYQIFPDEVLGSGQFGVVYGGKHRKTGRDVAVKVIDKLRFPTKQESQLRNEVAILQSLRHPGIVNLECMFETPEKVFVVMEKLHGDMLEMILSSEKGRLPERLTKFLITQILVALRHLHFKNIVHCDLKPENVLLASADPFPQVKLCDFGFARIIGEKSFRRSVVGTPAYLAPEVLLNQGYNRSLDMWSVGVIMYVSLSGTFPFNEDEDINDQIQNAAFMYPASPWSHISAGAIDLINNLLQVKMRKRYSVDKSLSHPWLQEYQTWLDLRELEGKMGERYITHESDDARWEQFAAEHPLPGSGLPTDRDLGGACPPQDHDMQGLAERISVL

`CN(C(=O)CN1CCOCC1)c1ccc2sc3c(-c4cccc5c(=O)cc(N6CC7CCC(C6)O7)oc45)cccc3c2c1` [NU5455]: the inhibition (usually the drop in the measured response relative to a control, in per cent) at 1 µM was -9.1%.
